Source: ChEMBL document CHEMBL6115011, “Optimizing biofilm inhibitors: Balancing activity and toxicity in 2N-aminated 5-aryl-2-aminoimidazoles” (Bioorg Med Chem, 2025)

Experiments:
Pseudomonas aeruginosa [1] = assay: Antibacterial activity against Pseudomonas aeruginosa PA14 at 25 degree C measured after 24 hrs by crystal violet staining based microplate reader analysis; assay type: functional, organism-based; conditions: PA14, 24 h
Staphylococcus aureus [2] = assay: Antibacterial activity against Staphylococcus aureus SH1000 at 25 degree C measured after 48 hrs by crystal violet staining based microplate reader analysis; assay type: functional, organism-based; conditions: SH1000, 48 h
Pseudomonas aeruginosa [3] = assay: Inhibition of biofilm formation in Pseudomonas aeruginosa PA14 at 25 degree C measured after 24 hrs by crystal violet staining based analysis; assay type: functional, organism-based; conditions: PA14, 24 h
Escherichia coli [4] = assay: Inhibition of biofilm formation in Escherichia coli TG1 at 25 degree C measured after 24 hrs by crystal violet staining based microplate reader analysis; assay type: functional, organism-based; conditions: TG1, 24 h
Escherichia coli [5] = assay: Antibacterial activity against Escherichia coli TG1 at 25 degree C measured after 24 hrs by crystal violet staining based microplate reader analysis; assay type: functional, organism-based; conditions: TG1, 24 h
Staphylococcus aureus [6] = assay: Inhibition of biofilm formation in Staphylococcus aureus SH1000 at 25 degree C measured after 48 hrs by crystal violet staining based analysis; assay type: functional, organism-based; conditions: SH1000, 48 h
[7] = Genotoxicity in human CAPAN-1 cells assessed as fold change at 100 uM measured after 3 hrs by Western blot analysis; assay type: toxicity, cell-based; conditions: capan-1, 3 h
[8] = Cytotoxicity against human PBMC cells assessed as survival rate at 100 uM measured after 72 hrs by trypan blue staining based assay relative to control; assay type: toxicity, cell-based; conditions: read-out: Survival
[9] = test system: Staphylococcus epidermidis; assay: Antibacterial activity against Staphylococcus epidermidis at 25 degree C measured after 48 hrs by crystal violet staining based microplate reader analysis; assay type: functional, organism-based
[10] = Genotoxicity in human CAPAN-1 cells assessed as fold change at 400 uM measured after 3 hrs by Western blot analysis; assay type: toxicity, cell-based; conditions: capan-1, 3 h
Staphylococcus aureus [11] = assay: Inhibition of biofilm formation in methicillin-resistant Staphylococcus aureus at 25 degree C measured after 48 hrs by crystal violet staining based analysis; assay type: functional, organism-based
[12] = Toxicity in Caenorhabditis elegans CB5612 assessed as increase in food depletion delay by wide field microscopy based analysis
[13] = Cytotoxicity against human PBMC cells assessed as survival rate at 25 uM measured after 72 hrs by trypan blue staining based assay relative to control; assay type: toxicity, cell-based; conditions: read-out: Survival
Staphylococcus aureus [14] = assay: Antibacterial activity against methicillin-resistant Staphylococcus aureus at 25 degree C measured after 48 hrs by crystal violet staining based microplate reader analysis; assay type: functional, organism-based
[15] = Cytotoxicity against human PBMC cells assessed as survival rate at 400 uM measured after 72 hrs by trypan blue staining based assay relative to control; assay type: toxicity, cell-based; conditions: read-out: Survival
[16] = test system: Staphylococcus epidermidis; assay: Inhibition of biofilm formation in Staphylococcus epidermidis at 25 degree C measured after 48 hrs by crystal violet staining based analysis; assay type: functional, organism-based
[17] = Toxicity in Caenorhabditis elegans CB5612 by wide field microscopy based analysis
[18] = Genotoxicity in human CAPAN-1 cells at 100 to 400 uM measured after 3 hrs by Western blot analysis; assay type: toxicity, cell-based; conditions: capan-1, 3 h, dose 100-400 µM
NCI-H460 = assay: Cytotoxicity against human NCI-H460 cells assessed as inhibition of cell growth measured after 72 hrs by CellTiter 96 Aqueous One Solution Cell Proliferation Assay; assay type: functional
HCT-116 = assay: Cytotoxicity against human HCT-116 cells assessed as inhibition of cell growth measured after 72 hrs by CellTiter 96 Aqueous One Solution Cell Proliferation Assay; assay type: functional
CAPAN-1 = assay: Cytotoxicity against human CAPAN-1 cells assessed as inhibition of cell growth measured after 72 hrs by CellTiter 96 Aqueous One Solution Cell Proliferation Assay; assay type: functional
Z-138 = assay: Cytotoxicity against human Z138 cells assessed as inhibition of cell growth measured after 72 hrs by CellTiter 96 Aqueous One Solution Cell Proliferation Assay; assay type: functional
LN-229 = assay: Cytotoxicity against human LN-229 cells assessed as inhibition of cell growth measured after 72 hrs by CellTiter 96 Aqueous One Solution Cell Proliferation Assay; assay type: functional
K562 = assay: Cytotoxicity against human K562 cells assessed as inhibition of cell growth measured after 72 hrs by CellTiter 96 Aqueous One Solution Cell Proliferation Assay; assay type: functional
HL-60 = assay: Cytotoxicity against human HL-60 cells assessed as inhibition of cell growth measured after 72 hrs by CellTiter 96 Aqueous One Solution Cell Proliferation Assay; assay type: functional
[19] = Cytotoxicity against human DND41 cells assessed as inhibition of cell growth measured after 72 hrs by CellTiter 96 Aqueous One Solution Cell Proliferation Assay; assay type: functional

| SMILES | IC50 (Pseudomonas aeruginosa [1]) [µM] | IC50 (Staphylococcus aureus [2]) [µM] | IC50 (Pseudomonas aeruginosa [3]) [µM] | IC50 (Escherichia coli [4]) [µM] | IC50 (Escherichia coli [5]) [µM] | IC50 (Staphylococcus aureus [6]) [µM] | IC50 [9] [µM] | fold change (FC) [10] | IC50 (Staphylococcus aureus [11]) [µM] | IC50 (Staphylococcus aureus [14]) [µM] | IC50 [16] [µM] | further results |
| --- | --- | --- | --- | --- | --- | --- | --- | --- | --- | --- | --- | --- |
| CCCCCCCCn1c(-c2ccc(Br)cc2)cnc1NC1CCCC1 | 25.2 | 33.1 | > 800 | 14 | 25.7 | 63.2 | – | – | – | – | – | – |
| CCCCCCCCNc1ncc(-c2ccc(Cl)cc2)[nH]1 | 70.2 | 84.4 | > 200 | 8.42 | 72.3 | 43.1 | – | – | – | – | – | – |
| NCCCCCCCCCCCCNc1ncc(-c2ccccc2)[nH]1 | 12.3 | 14 | 6.7 | 9.6 | 9.5 | 25.4 | 32 | 1.95 | 12.8 | 19.7 | 23.8 | fold change (FC) [7]: 2.75; viability at 72 h, 100 µM [8]: < 50%; Time [12]: 3.5 days; viability at 72 h, 25 µM [13]: 6%; viability at 72 h, 400 µM [15]: 4.5% |
| NCCCCNc1ncc(-c2ccc(F)cc2)[nH]1 | 34.6 | 176 | 4.5 | 14.9 | 31.5 | 167 | – | – | 98.1 | 217 | 6.1 | Activity [17]: Toxic |
| COc1cc([C@@H]2c3cc4c(cc3[C@@H](O[C@@H]3O[C@@H]5CO[C@@H](C)O[C@H]5[C@H](O)[C@H]3O)[C@H]3COC(=O)[C@H]23)OCO4)cc(OC)c1O [ETOPOSIDE] | – | – | – | – | – | – | – | > 8 | – | – | – | fold change (FC) [7]: 10; viability at 72 h, 100 µM [8]: 71%; viability at 72 h, 25 µM [13]: < 67%; viability at 72 h, 400 µM [15]: 38% |
| NCCCCCCCCCCCNc1ncc(-c2ccccc2)[nH]1 | 16.7 | 28.6 | 8.3 | 15.5 | 14.2 | 37.5 | 25 | 1.75 | 18.1 | 47.7 | 1.8 | Time [12]: 3 days |
| NCCCCCNc1ncc(-c2ccccc2)[nH]1 | 61.2 | 224 | 16.5 | 38.3 | 80 | 91.7 | – | – | 154 | 503 | 25.6 | Activity [18]: Non-toxic |
| OB(O)O [BORIC ACID] | – | – | – | – | – | – | – | – | – | – | – | Time [12]: > 10 days |
| CCCCCCCCn1c(-c2ccccc2)cnc1NC1CCCC1 | 20.6 | 8.35 | > 800 | 6.55 | 8.37 | 8.34 | – | – | – | – | – | – |
| NCCCCCCNc1ncc(-c2ccc(Cl)cc2)[nH]1 | 22.3 | 71.2 | 4.24 | 3.28 | 16.1 | 86.5 | 90.8 | 14.6 | 28.3 | 16.1 | 42.1 | CC50 (NCI-H460): 40 µM; CC50 (HCT-116): 40 µM; CC50 (CAPAN-1): 40 µM; CC50 (Z-138; Homo sapiens, Z-138, 72 h): 11 µM; CC50 (LN-229; Homo sapiens, LN-229, 72 h): 40 µM; CC50 (K562; Homo sapiens, K562, 72 h): 36.2 µM; CC50 (HL-60): 13.2 µM |
| NCCCCCCCCNc1ncc(-c2ccc(Br)cc2)[nH]1 | 14.5 | 36.7 | 7.8 | 6.8 | 17.6 | 46.1 | – | – | 26.3 | 61.8 | 12.6 | viability at 72 h, 100 µM [8]: 94%; CC50 (NCI-H460): 30 µM; Activity [17]: Toxic; CC50 (CAPAN-1): 30 µM; CC50 (Z-138; Homo sapiens, Z-138, 72 h): 30 µM; CC50 (LN-229; Homo sapiens, LN-229, 72 h): 30 µM; CC50 (K562; Homo sapiens, K562, 72 h): 30 µM; CC50 (HL-60): 30 µM; viability at 72 h, 25 µM [13]: 79.8%; viability at 72 h, 400 µM [15]: 30.2% |
| CCc1c2c(nc3ccc(O)cc13)-c1cc3c(c(=O)n1C2)COC(=O)[C@]3(O)CC [7-ETHYL-10-HYDROXYCAMPTOTHECIN] | – | – | – | – | – | – | – | 9 | – | – | – | fold change (FC) [7]: > 7 |
| NCCCCCCCNc1ncc(-c2ccccc2)[nH]1 | 33.3 | 106 | 12.4 | 17.3 | 39.7 | 64.7 | – | – | 48.9 | 72.6 | 12.3 | CC50 (NCI-H460): 68.8 µM; CC50 (CAPAN-1): 41.1 µM; Activity [18]: Non-toxic |
| NCCCCCCCCn1c(-c2ccccc2)cnc1NC1CCCC1 | 74.4 | 79.4 | 107 | 33.5 | 85.1 | 70.4 | – | – | – | – | – | – |
| NCCCCCCCCNc1ncc(-c2ccc(F)cc2)[nH]1 | 26.6 | 90.7 | 13.1 | 12.8 | 21.6 | 47.6 | – | 2.35 | 36.8 | 79.9 | 15.7 | viability at 72 h, 100 µM [8]: 70%; Activity [17]: Toxic; CC50 (HCT-116): 29.9 µM; CC50 [19]: 46.4 µM; viability at 72 h, 25 µM [13]: 56.4%; viability at 72 h, 400 µM [15]: 22.9% |
| NCCCCCCCCNc1ncc(-c2ccccc2)[nH]1 | 21.1 | 40.6 | 12.7 | 13.5 | 15.6 | 21.1 | 20.4 | – | 35.3 | 45.4 | 3.5 | viability at 72 h, 100 µM [8]: < 50%; CC50 (NCI-H460): 30 µM; CC50 (CAPAN-1): 30 µM; CC50 [19]: 58.3 µM; CC50 (Z-138; 72 h): 30 µM; CC50 (Z-138; Homo sapiens, Z-138, 72 h): 49.7 µM; CC50 (LN-229; 72 h): 30 µM; CC50 (LN-229; Homo sapiens, LN-229, 72 h): 52.9 µM; CC50 (K562; 72 h): 30 µM; CC50 (K562; Homo sapiens, K562, 72 h): 57.4 µM; CC50 (HL-60): 30 µM; Activity [18]: Non-toxic |
| CCCCCCNc1ncc(-c2ccc(Cl)cc2)[nH]1 | 38.7 | 186 | 40.6 | 11.3 | 21.8 | 141 | – | – | – | – | – | – |
| NCCCCCCCCCCNc1ncc(-c2ccccc2)[nH]1 | 60.7 | 15.3 | 16.8 | 18.6 | 17.8 | 24.9 | 25.7 | 2 | 19.8 | 23.8 | 8.2 | CC50 (HCT-116): 46.9 µM; CC50 (HL-60): 47.1 µM |
| NCCCCCCCCn1c(-c2ccc(Br)cc2)cnc1NC1CCCC1 | 61.4 | 56.1 | 147 | 25.2 | 43.4 | 167 | – | – | – | – | – | viability at 72 h, 400 µM [15]: 48% |
| NCCCCCCNc1ncc(-c2ccc(Br)cc2)[nH]1 | 27.4 | 38.6 | 11.2 | 14.2 | 21 | 59.6 | 85.2 | 5.75 | 60 | 106 | 35.3 | fold change (FC) [7]: 2.3; CC50 (NCI-H460): 40 µM; CC50 (HCT-116): 40 µM; CC50 (CAPAN-1): 40 µM; Time [12]: 0.66 days; CC50 (LN-229; Homo sapiens, LN-229, 72 h): 40 µM |
| NCCCCCCCCNc1ncc(-c2ccc(Cl)cc2)[nH]1 | 21 | 12.5 | 19.2 | 16.6 | 16.9 | 15.8 | 51.2 | 12.1 | 34.8 | 93.7 | 59.6 | viability at 72 h, 100 µM [8]: 17.5%; CC50 [19]: 20 µM; CC50 (Z-138; 72 h): 20 µM; CC50 (Z-138; Homo sapiens, Z-138, 72 h): 21.6 µM; CC50 (K562; Homo sapiens, K562, 72 h): 20 µM; CC50 (HL-60): 20 µM; viability at 72 h, 25 µM [13]: 79.6%; viability at 72 h, 400 µM [15]: 0.5% |
